Data taken from patent US20250382619A1, “CANCER THERAPY WITH TGF-BETA-2 AND IRINOTECAN AGENTS” (GMP BIOTECHNOLOGY LIMITED, priority 2023, published 2025).
Where “and” joins values, the source holds several entries; their conditions need not be identical. Identical values can stand only once. In the oligonucleotide strings, read from the 5' end, every base follows the letter of its sugar. An asterisk marks phosphorothioate; unmarked linkages are phosphodiester. Other units and linkages are bracketed, terminal groups are in braces. A string of capitals states the bases alone. d = 2'-deoxy (DNA)

Experiments:
[1] = test system: pancreatic cancer; assay: Clinical study of overall survival, pancreatic cancer patients treated with irinotecan, by TGF-β2 expression quartiles (Example 6); format: in vivo, human; details: TGFB2 quartile (D) 0.61-2.64, high TGF-β2 expression
Experimental: Kaplan-Meier Plotter was used to calculate patient survival to determine the connection between improved overall survival in pancreatic cancer and reduced TGF-β2 expression when patients were also treated with irinotecan. The study of FIG. 6 used Quartiles of TGFB2 from mRNA expression z-scores relative to all samples (log RNA Seq V2 RSEM).

[2] = test system: pancreatic cancer; assay: Clinical study of overall survival, pancreatic cancer patients treated with irinotecan, by TGF-β2 expression (Example 5, two cohorts); format: in vivo, human; details: for Median Months Overall (95% CI): irinotecan-treated patients; for Improvement in overall survival (OS) with reduced TGF-β2 expression in patients treated with the agent: pancreatic cancer patients selected by treatment; for Synergy in combination with reduced TGF-β2 expression: overall survival, pancreatic cancer patients
Excerpt: The study of FIG. 5 used Quartiles of TGFB2 from mRNA expression z-scores relative to all samples (log RNA Seq V2 RSEM).

Row | Compound | Improvement in overall survival (OS) with reduced TGF-β2 expression in patients treated with the agent [2] | Synergy in combination with reduced TGF-β2 expression [2] | further results
1 | CCc1c2c(nc3ccc(OC(=O)N4CCC(N5CCCCC5)CC4)cc13)-c1cc3c(c(=O)n1C2)COC(=O)[C@]3(O)CC [irinotecan] | showed improvement in overall survival | – | Median Months Overall (95% CI) [1]: 8 months and 8.22 (6.02-NA) months; Median Months Overall (95% CI) ([2]; TGFB2 cohort (A) −1.75-0.17, low TGF-β2 expression): >>34 months; Median Months Overall (95% CI) ([2]; TGFB2 cohort (B) 0.33-2.64, high TGF-β2 expression): 23 months and 23.08 (8.22-NA) months
2 | O=c1[nH]cc(F)c(=O)[nH]1 [fluorouracil] | not observed | none of oxaliplatin, leucovorin, and fluorouracil showed significant synergy | –
3 | Nc1nc2c(c(=O)[nH]1)N(C=O)C(CNc1ccc(C(=O)N[C@@H](CCC(=O)O)C(=O)O)cc1)CN2 (some centres unmarked) [leucovorin] | not observed | none of oxaliplatin, leucovorin, and fluorouracil showed significant synergy | –
4 | Nc1ccn([C@@H]2O[C@H](CO)[C@@H](O)C2(F)F)c(=O)n1 [gemcitabine] | not observed | – | –
5 | Trabedersen: synthetic 18-mer phosphorothioate oligodeoxynucleotide complementary to human TGF-β2 mRNA, CGGCATGTCT ATTTTGTA (antisense dC*dG*dG*dC*dA*dT*dG*dT*dC*dT*dA*dT*dT*dT*dT*dG*dT*dA) | – | – | pH of solution: 6-8
6 | O=C1[O][Pt]2([NH][C@@H]3CCCC[C@H]3[NH]2)[O]C1=O [oxaliplatin] | not observed | – | –
